From ChEMBL document CHEMBL3885881, “DrugMatrix”

Species: Rattus norvegicus
Test: DrugMatrix - Regimen: Daily Repeat
Format: toxicity, organism-based, Sprague-Dawley
Set-up: regimen Daily Repeat, gender Male, age 6-8 weeks
Details: in vivo, po, route oral GAVAGE, vehicle .5 % CMC; for BASOPHIL / EOSINOPHIL / ERYTHROCYTE COUNT / HEMATOCRIT / HEMOGLOBIN / LEUKOCYTE COUNT / LYMPHOCYTE / MEAN CORPUSCULAR HEMOGLOBIN / MEAN CORPUSCULAR HEMOGLOBIN CONCENTRATION / MEAN CORPUSCULAR VOLUME / MONOCYTE / NEUTROPHIL / PLATELET COUNT: tissue Blood; for ALANINE AMINOTRANSFERASE / ALBUMIN / ALKALINE PHOSPHATASE / ASPARTATE AMINOTRANSFERASE / BLOOD UREA NITROGEN / CHLORIDE / CHOLESTEROL / CREATINE PHOSPHOKINASE / CREATININE / GLUCOSE / PHOSPHORUS / POTASSIUM / SODIUM / TOTAL BILIRUBIN / TOTAL PROTEIN: tissue Plasma
[1] = 0 mg/kg, 72 h, dose level Control, time 3 day
[2] = 0 mg/kg, 120 h, dose level Control, time 5 day
[3] = 59 mg/kg, 72 h, dose level Low, time 3 day
[4] = 59 mg/kg, 120 h, dose level Low, time 5 day

## CC[C@@H](CO)NCCN[C@@H](CC)CO [ETHAMBUTOL]
[1]
  BASOPHIL: 0%
  EOSINOPHIL: 0.33%
  ERYTHROCYTE COUNT: 6.2 x10E6/uL
  HEMATOCRIT: 38.08%
  HEMOGLOBIN: 14.92 G/DL
  LEUKOCYTE COUNT: 11.13 x10E3/uL
  LYMPHOCYTE: 76%
  MEAN CORPUSCULAR HEMOGLOBIN: 24.1 pg
  MEAN CORPUSCULAR HEMOGLOBIN CONCENTRATION: 39.17 G/DL
  MEAN CORPUSCULAR VOLUME: 61.48 fL
  MONOCYTE: 3.83%
  NEUTROPHIL: 19.83%
  PLATELET COUNT: 1327.5 x10E3/uL
  ALANINE AMINOTRANSFERASE: 40.17 u/L
  ALBUMIN: 4.07 G/DL
  ALKALINE PHOSPHATASE: 372 u/L
  ASPARTATE AMINOTRANSFERASE: 67.17 u/L
  BLOOD UREA NITROGEN: 18.83 mg/dL
  CHLORIDE: 105.17 MEQ/L
  CHOLESTEROL: 78.17 mg/dL
  CREATINE PHOSPHOKINASE: 149.17 u/L
  CREATININE: 0.57 mg/dL
  GLUCOSE: 185.17 mg/dL
  PHOSPHORUS: 11.43 mg/dL
  POTASSIUM: 6.78 MEQ/L
  SODIUM: 152.83 MEQ/L
  TOTAL BILIRUBIN: 0.4 mg/dL
  TOTAL PROTEIN: 6.87 G/DL
[2]
  BASOPHIL: 0%
  EOSINOPHIL: 0%
  ERYTHROCYTE COUNT: 6.05 x10E6/uL
  HEMATOCRIT: 36.55%
  HEMOGLOBIN: 14.7 G/DL
  LEUKOCYTE COUNT: 11.8 x10E3/uL
  LYMPHOCYTE: 86.83%
  MEAN CORPUSCULAR HEMOGLOBIN: 24.37 pg
  MEAN CORPUSCULAR HEMOGLOBIN CONCENTRATION: 40.32 G/DL
  MEAN CORPUSCULAR VOLUME: 60.47 fL
  MONOCYTE: 0.83%
  NEUTROPHIL: 12.33%
  PLATELET COUNT: 1177 x10E3/uL
  ALANINE AMINOTRANSFERASE: 41.83 u/L
  ALBUMIN: 3.75 G/DL
  ALKALINE PHOSPHATASE: 377.5 u/L
  ASPARTATE AMINOTRANSFERASE: 60.83 u/L
  BLOOD UREA NITROGEN: 16 mg/dL
  CHLORIDE: 105.67 MEQ/L
  CHOLESTEROL: 67.83 mg/dL
  CREATINE PHOSPHOKINASE: 120.33 u/L
  CREATININE: 0.6 mg/dL
  GLUCOSE: 167.67 mg/dL
  PHOSPHORUS: 10.03 mg/dL
  POTASSIUM: 6.68 MEQ/L
  SODIUM: 150.5 MEQ/L
  TOTAL BILIRUBIN: 0.57 mg/dL
  TOTAL PROTEIN: 6.25 G/DL
[3]
  BASOPHIL: 0%
  EOSINOPHIL: 0.67%
  ERYTHROCYTE COUNT: 6.09 x10E6/uL
  HEMATOCRIT: 36.33%
  HEMOGLOBIN: 14.2 G/DL
  LEUKOCYTE COUNT: 11.65 x10E3/uL
  LYMPHOCYTE: 88%
  MEAN CORPUSCULAR HEMOGLOBIN: 23.7 pg
  MEAN CORPUSCULAR HEMOGLOBIN CONCENTRATION: 39.55 G/DL
  MEAN CORPUSCULAR VOLUME: 59.63 fL
  MONOCYTE: 0.33%
  NEUTROPHIL: 11%
  PLATELET COUNT: 1231 x10E3/uL
  ALANINE AMINOTRANSFERASE: 35.33 u/L
  ALBUMIN: 3.63 G/DL
  ALKALINE PHOSPHATASE: 327.67 u/L
  ASPARTATE AMINOTRANSFERASE: 58.33 u/L
  BLOOD UREA NITROGEN: 11.67 mg/dL
  CHLORIDE: 104.33 MEQ/L
  CHOLESTEROL: 68 mg/dL
  CREATINE PHOSPHOKINASE: 185 u/L
  CREATININE: 0.57 mg/dL
  GLUCOSE: 165.33 mg/dL
  PHOSPHORUS: 12.53 mg/dL
  POTASSIUM: 6.5 MEQ/L
  SODIUM: 149.67 MEQ/L
  TOTAL BILIRUBIN: 0.27 mg/dL
  TOTAL PROTEIN: 5.9 G/DL
[4]
  BASOPHIL: 0%
  EOSINOPHIL: 0%
  ERYTHROCYTE COUNT: 6.14 x10E6/uL
  HEMATOCRIT: 38.6%
  HEMOGLOBIN: 15.1 G/DL
  LEUKOCYTE COUNT: 11.85 x10E3/uL
  LYMPHOCYTE: 89.33%
  MEAN CORPUSCULAR HEMOGLOBIN: 24.7 pg
  MEAN CORPUSCULAR HEMOGLOBIN CONCENTRATION: 39.2 G/DL
  MEAN CORPUSCULAR VOLUME: 63.03 fL
  MONOCYTE: 0.67%
  NEUTROPHIL: 10%
  PLATELET COUNT: 1247.67 x10E3/uL
  ALANINE AMINOTRANSFERASE: 27.67 u/L
  ALBUMIN: 3.57 G/DL
  ALKALINE PHOSPHATASE: 273.67 u/L
  ASPARTATE AMINOTRANSFERASE: 55 u/L
  BLOOD UREA NITROGEN: 11.33 mg/dL
  CHLORIDE: 105.67 MEQ/L
  CHOLESTEROL: 89 mg/dL
  CREATINE PHOSPHOKINASE: 135.33 u/L
  CREATININE: 0.5 mg/dL
  GLUCOSE: 157.67 mg/dL
  PHOSPHORUS: 11.8 mg/dL
  POTASSIUM: 6.47 MEQ/L
  SODIUM: 151.33 MEQ/L
  TOTAL BILIRUBIN: 0.2 mg/dL
  TOTAL PROTEIN: 6 G/DL
